Data published in article PMC12309968 (iScience, 2025).
In brackets after ≈: the same amount, converted by molar mass. Entries after “also recorded” stand apart in the source; their conditions may differ. Where two headings read alike, the source gives them in different places. Positions of bridges follow the written chain, without caps; N, C: chain ends. Non-standard residues stand in square brackets, D forms with d. Residues, ends and D or L forms follow the SMILES beside them. *: point of attachment. Octanoyl = CCCCCCCC(=O)*; Dab = NCC[C@H](N)C(=O)O; Abu = CC[C@H](N)C(=O)O

Tests used:
[1] = system: cynomolgus monkey; conditions: in vivo; cited from earlier work
[2] = system: CD-1 mice; conditions: mouse, in vivo, iv
[3] = biological target: lactate dehydrogenase A (LDH-A), tetrameric form (Homo sapiens, UniProt P00338); assay: biochemical; type: binding
[4] = system: human leukocytes
[5] = system: human renal tubular cells; conditions: cited from earlier work
[6] = in vivo; cited from earlier work
[7] = system: Stx2a binding to TLR4-expressing Gb3Cer-lacking human neutrophils
[8] = system: human erythrocytes
[9] = biological target: Stx2a (Escherichia phage 933W, UniProt P09385+P09386); assay: biochemical; type: binding, E. coli (C600-933W strain)
[10] = system: E. coli SOS response; conditions: cited from earlier work
[11] = system: Shigella; conditions: cited from earlier work
[12] = system: neutrophil/platelet aggregates; type: cell-based, human
[13] = system: monocyte/platelet aggregates; type: cell-based, human
[14] = system: E. coli; conditions: cited from earlier work
[15] = system: Raji cells (Gb3Cer-expressing); conditions: cited from earlier work
[16] = system: interaction between LPS and TLR4; conditions: cited from earlier work
[17] = system: Stx2a binding to TLR4-expressing Gb3Cer-lacking human neutrophils; conditions: cited from earlier work
[18] = system: SOS response; conditions: cited from earlier work

CCCCCCCC(=O)N[C@@H](CCN)C(=O)N[C@H](C(=O)N[C@@H](C(=O)N[C@H]1CCNC(=O)[C@H]([C@@H](C)O)NC(=O)[C@H](CCN)NC(=O)[C@H](CC)NC(=O)[C@H](CC(C)C)NC(=O)[C@@H](Cc2ccccc2)NC(=O)[C@H](CCN)NC1=O)[C@H](C)O)[C@@H](C)O [NAB815] (Octanoyl-[Dab]T[dT][Dab][Dab][dF]L[Abu][Dab]T; lactam 4-C)
serum creatinine, blood urea nitrogen, urinary biomarkers [1]: no significant increase in serum creatinine, blood urea nitrogen, or in the urinary biomarkers tested | tolerability [1]: well tolerated | serum creatinine and urea [2]: No changes in serum creatinine and urea were found | Kd [3]: 10 µM | necrotic leukocytes (7-AAD+) [4]: the number of necrotic cells was negligible | IC50, cytotoxicity to human renal tubular cells [5]: 334 µg/mL (≈ 284 µM) | cytotoxicity lower than that of polymyxin B (fold) [5]: approximately 20 times | excretion into urine relative to polymyxin B [6]: approximately 10 times | IC50 in inhibiting the binding of Stx2a to human neutrophils [7]: 0.057 µg/mL | hemolysis [8]: no hemolysis occurred | Kd [9]: 0.05 µM | maximum reduction (quenching) of Stx2a fluorescence [9]: approximately 10%

CNC(C)C1CCC(N)C(OC2C(N)CC(N)C(OC3OCC(C)(O)C(NC)C3O)C2O)O1 (stereo not drawn) [gentamicin]
MIC/SIC ratio [10]: 1.8 | SOS-inducing action [10]: poor

Triton X-100
hemolysis [8]: no hemolysis occurred, unlike treatment with Triton X-100, chosen as a positive control

CO[C@@]12[C@H](COC(N)=O)C3=C(C(=O)C(C)=C(N)C3=O)N1C[C@@H]1N[C@@H]12 [mitomycin C]
MIC/SIC ratio [10]: 1.4 | SOS-inducing action [10]: strong SOS-inducing actions

O=C(O)c1cn(C2CC2)c2cc(N3CCNCC3)c(F)cc2c1=O [ciprofloxacin]
MIC/SIC ratio [10]: 8 | SOS-inducing action [10]: frequently used as a model antibiotic inducing the SOS response

polymyxin B
tolerability [1]: had to be euthanized because of severe nephrotoxicity | concentration inducing release of considerable amounts of Stx by Shigella [11]: higher than 1 μg/mL | IC50, cytotoxicity to human renal tubular cells [5]: 18 µg/mL | effect on neutrophil/platelet aggregates [12]: ineffective at these concentrations | effect on monocyte/platelet aggregates [13]: ineffective at these concentrations | MIC [14]: 1 µg/mL | lack of protection of Gb3Cer-expressing Raji cells from Stx2a [15]: as previously shown with polymyxin B | block of LPS/TLR4 interaction [16]: known to block the interaction between the bacterial endotoxin (lipopolysaccharide [LPS]) and TLR4 | IC50 in inhibiting the binding of Stx2a to human neutrophils [17]: 3.5 µg/mL | effect on Stx2a/TLR4 interactions, binding of Stx2a to leukocytes [17]: effectively impairs the Stx2a/TLR4 interactions; also recorded: does block the binding of Stx2a to leukocytes at μg/mL concentrations that are also highly bactericidal | concentration eliciting the SOS response [18]: higher than 1 μg/mL
